Data set [1] deals with COS-7 cells expressing Q45-GFP. In words: FCS analysis of polyQ oligomer formation in cell lysates. Format: cell-based. Particulars: 25 mM arginine, lysed 48 hours after transfection. The protocol:
For polyQ oligomer formation, the fluorescent protein GFP fused with a protein having a PolyQ repeat consisting of 45 glutamines (Q45-GFP) was used as the monomer. Two indices obtained from FCS measurement were used to assess the property of polyQ oligomers; counts per particle (CPP) and the diffusion time of the fast components (DT1) (Non-Patent Document 11). […] DT1 reflects the size of the Q45-GFP oligomers.
FCS analysis was performed by the method described in Non-Patent Document 11. […] The cell lysates were gently sonicated and centrifuged to remove insoluble Q45-GFP inclusion bodies. The resulting supernatants containing no visible inclusion bodies were subjected to FCS measurements. From the measurements, the diffusion time, which corresponds to the average time for diffusion of fluorescent particles across the detection area and CPP, which directly reflects the number of fluorescent molecules per particle, were calculated.

For data set [2], the system named is Q40-GFP expressing nematode line. Nature of the data set: tail-flick test in C. elegans model of the PolyQ diseases. Format: in vivo, Caenorhabditis elegans. Particulars: 10 mM arginine, 6 days old nematodes, 20° C. How it is done:
As a C. elegans model of the polyQ diseases, a Q40-GFP expressing nematode line (Non-Patent Document 14), which is a C. elegans line expressing GFP having a polyQ repeat consisting of 40 glutamines (Q40-GFP) was used.
Nematodes were grown at 20° C. on nematode growth medium (NGM) plates seeded with Escherichia coli OP50. For the generation of the Q40-GFP expression nematode line, plasmids encoding Q40-GFP were injected into wild type strain N2.
Tail-flick tests were performed at 20° C. on nematodes synchronized to 6 days old. First, each nematode was transferred to a separate plate. One drop of S-basal solution was dropped on one nematode, and after waiting for 5 minutes for them to recover, the number of movements of the tail of the worm was measured for 1 minute. The number of movements of the tail was defined as the number of times to change the bending direction of the mid-body of a nematode.

Data set [3] has as its system SCA1 mice. In words: rotarod test, arginine from 3 weeks of age. It is filed as in vivo, mouse. Particulars: 6% by weight arginine in drinking water from 3 weeks of age. The source says:
SCA1 mice express the abnormally expanded polyQ protein (the mutant ataxin 1 protein with polyQ repeats consisting of 154 glutamines) at endogenous levels and with accurate temporal and spatial patterns, and replicates numerous aspects of the human disease including progressive motor deficit. The SCA1 mice used in this experiment were a kind gift from Dr. Kei Watase (Tokyo Medical and Dental University, Japan).
Rotarod tests have been previously utilized for the assessment of motor function in SCA1 mice (Non-Patent Document 15).
For rotarod analysis, mice were tested on an accelerating rotarod apparatus (Ugo Basile) and performed according to the method described in Non-Patent Document 17. The time courses of the amount of walking time until wild type mice and SCA1 mice fell from the rotarod (Latency) are shown in FIG. 17. […] In the figure, values represent means±SEM (n=16-18), “**” represents p<0.01, and “***” represents p<0.001, respectively.

Data set [4] relates to SCA1 mice. Nature of the data set: immunohistochemical analysis of PolyQ inclusion bodies in brain. The settings on record: 12-week-old SCA1 mice, 6% arginine in drinking water from 3 weeks. It is filed as in vivo, mouse. How it is done:
It was reported that SCA1 mice develop polyQ inclusion bodies (PolyQ protein aggregates) in their neurons of the cerebral cortex and hippocampus from around 4 weeks of age (Non-Patent Document 15).
PolyQ inclusion bodies in brain sections were detected using immunohistochemical analysis. First, ten-micrometer-thick frozen sections of 12 week-old SCA1 mouse brains were prepared according to the method described in Non-Patent Document 17. The sections were blocked in PBS containing 5% goat serum and 0.1% Triton X-100 for 1 hour at room temperature, then incubated with a rabbit anti-ubiquitin antibody (clone FK2, 1:500) at 4° C. overnight, followed by an Alexa Fluor 488-conjugated goat anti-rabbit IgG antibody (1:1,000, Life Technologies) for 1 hour at room temperature. […]
By confocal laser scanning microscopy, inclusion bodies stained with the anti-ubiquitin antibody can be visualized. Therefore, the sections were observed using a confocal laser scanning microscope, cells included in the field of view were counted, and the percentage (%) of the cells in which the inclusion bodies were formed to the total number of cells was measured. In each mouse, the cell count was averaged for 3 fields of view, in which over 130 or 70 cells were counted in the cortex or hippocampus, respectively. […]

Data set [5] relates to SCA1 mice. Nature of the data set: rotarod test, arginine from 5 weeks of age (after onset). Format: in vivo, mouse. Particulars: 6% arginine in drinking water from 5 weeks of age; 7 to 19 weeks of age; significant at 15 and 19 weeks. How it is done: An important factor of consideration in developing treatments for neurodegenerative diseases including polyQ diseases is whether the drug exerts its therapeutic effect at the symptomatic phase when the pathological process has already progressed. To date, therapeutic candidates have been administered to polyQ disease mice prophylactically at the pre-symptomatic phase in most preclinical studies.
The rotarod test was carried out in the same manner as in Example 4. The time courses of the amount of walking time until wild type mice and SCA1 mice fell from the rotarod (Latency) are shown in FIG. 21. In the figure, “WT Water”, “WT Arg”, “SCA1 Water”, and “SCA1 Arg” represent the same as in FIG. 17. In the figure, values represent means±SEM (n=23-25), “*” represents p<0.05.
(In general: The rotarod test checks motor coordination on a turning rod.)

For data set [6] the following is noted: Non-Patent Documents 3 and 4; cited from earlier work.

Turning to `N=C(N)NCCC[C@H](N)C(=O)O` [arginine], in data set [1], the “counts per particle (CPP)” value is given as “decreased compared to untreated cells” and the “diffusion time of the fast components (DT1)” value was “decreased compared to untreated cells”. In addition, in data set [2], the “tail movements per minute” value is “significantly improved”. Moreover, the “motor function, rotarod latency” value with SCA1 mice [3] (4 to 12 weeks of age) is reported as “significantly better than the untreated mice”. The “therapeutic effect on rotarod, duration” value in the data set on SCA1 mice [3] (until 28 weeks of age) is recorded as “remained significant until 28 weeks of age”. Besides, in the data set with SCA1 mice [4], the “percentage of cells with inclusion body formation, cerebral cortex” value is reported as “significantly decreased” and the “percentage of cells with inclusion body formation, hippocampus” value is reported as “significantly decreased”. In addition, the “time to walk without falling from the rotarod” value in the data set on SCA1 mice [5] was “longer time to walk without falling from the rotarod than the untreated SCA1 mice”. The “safety in clinical trials” value in data set [6] is given as “safety of arginine has been established”.

These data come from patent US20190314311A1, “PHARMACEUTICAL COMPOSITION” (JAPAN SCIENCE AND TECHNOLOGY AGENCY, priority 2016, published 2019).
